Entries after “also recorded” stand apart in the source; their conditions may differ.
Test system: TNFα protein expression
Test: Skin resident immune cell assay (sRICA), LPS-stimulated human skin, TNFα protein
Format: cell-based
Settings: positive control, applied topically
Experimental: The anti-inflammatory activity of the IRAK4/TrkA inhibitors was determined in a skin resident immune cell assay (sRICA). In this model, human surgical skin waste was cultured in a transwell system, with the dermis in contact with cell culture media and the stratum corneum exposed to air. To perform the assay, each human skin sample was defatted and dermatomed to 750 μm. Next, 8 mm punch biopsies were obtained and placed in a membrane transwell. The biopsies were prepared with a barrier ring to contain the formulation and prevent leakage of the formulation. The transwells were inserted into culture wells with complete media, and a cocktail of cytokines and antibodies and/or inflammatory stimuli were added to promote skin resident immune cell polarization and/or elicitation of a specific inflammatory response. The transwells were treated with LPS as a positive control, a vehicle as a negative control, and various dual IRAK/TrkA inhibitors. TNFα protein expression was measured and the mean TNFα protein level in the LPS treated samples was set to 100%.
The Compounds were formulated at 80% saturated solubility. […]
Except for the 0.5% Compound 1/NAG6 formulations, all Round 2 formulations were manufactured at 80% saturation. […] Conditioned cell media was collected and assessed for expression of inflammatory proteins after 48 hours of exposure to LPS stimulation.

Structure (SMILES): CCC(=O)O[C@]1(C(=O)CCl)[C@@H](C)C[C@H]2[C@@H]3CCC4=CC(=O)C=C[C@]4(C)[C@@]3(F)[C@@H](O)C[C@@]21C [Clobetasol]
- Effect on LPS-induced TNFα production / inflammation: significantly reduced inflammation back to baseline levels; also recorded: completely inhibited TNFα induction

Reference: patent US20230390265A1, “IRAK4 Inhibitors and Topical Uses Thereof” (Dermira, Inc., priority 2020, published 2023)
